# Laboratory results reported in ChEMBL document CHEMBL4610019, “Novel hybrid molecules of 3,5-bis(benzylidene)-4-piperidones and dichloroacetic acid which demonstrate potent tumour-selective cytotoxicity” (Bioorg Med Chem Lett, 2020).
# Calls of active or inactive are those of the source. No cut-off for these calls is given here.
# Tests used:
# HCT-116 [1] = assay: Induction of ROS generation in human HCT116 cells assessed as increase in ROS level at IC50; type: functional, cell-based
# HCT-116 [2] = assay: Cell cycle arrest in human HCT116 cells assessed as accumulation at S phase at 10.96 uM (reference value: 18.4 %); type: functional
# HCT-116 [3] = assay: Induction of mitochondrial membrane potential loss in human HCT116 cells at IC50; type: functional, cell-based
# HCT-116 [4] = assay: Cell cycle arrest in human HCT116 cells assessed as accumulation at G0/G1 phase at 10.96 uM (reference value: 46.8 %); type: functional
# HCT-116 [5] = assay: Cell cycle arrest in human HCT116 cells assessed as accumulation of diploid cells at 10.96 uM (reference value: 2.5 %); type: functional
# [6] = Selectivity index, ratio of IC50 for human CRL1790 cells assessed as inhibition of cell growth to IC50 for human HCT116 cells assessed as inhibition of cell growth; type: toxicity; settings: CRL1790 cells versus HCT116 cells, read-out: Ratio IC50
# HCT-116 [7] = assay: Induction of apoptosis in human HCT116 cells assessed as apoptotic cells at 10.96 uM (reference value: 2.4 %); type: functional
# CCD-841CoN = assay: Cytotoxicity against human CRL1790 cells assessed as inhibition of cell growth; type: cell-based
# HCT-116 [8] = assay: Cytotoxicity against human HCT116 cells assessed as inhibition of cell growth; type: functional, cell-based
# HCT-116 [9] = assay: Induction of ROS generation in human HCT116 cells assessed as increase in ROS level at 2 times IC50; type: functional, cell-based
# HCT-116 [10] = assay: Cell cycle arrest in human HCT116 cells assessed as accumulation at G2/M phase at 10.96 uM (reference value: 29.4 %); type: functional
# HCT-116 [11] = assay: Induction of mitochondrial membrane potential loss in human HCT116 cells at 2 times IC50; type: functional, cell-based
# HCT-116 [12] = assay: Potency index, ratio of 5-fluorouracil IC50 to test compound IC50 for human HCT116 cells assessed as inhibition of cell growth; type: functional
# HCT-116 [13] = assay: Cell cycle arrest in human HCT116 cells assessed as accumulation at S phase at 0.23 uM (reference value: 18.4 %); type: functional
# HCT-116 [14] = assay: Cell cycle arrest in human HCT116 cells assessed as accumulation at G0/G1 phase at 0.23 uM (reference value: 46.8 %); type: functional
# HCT-116 [15] = assay: Induction of apoptosis in human HCT116 cells assessed as apoptotic cells at 0.23 uM (reference value: 2.4 %); type: functional
# [16] = Stability of compound in mixture of DMSO and phosphate buffer at 37 degree C incubated for 48 hrs by H-NMR spectroscopy; type: physicochemical
# HCT-116 [17] = assay: Cell cycle arrest in human HCT116 cells assessed as accumulation at G2/M phase at 0.23 uM (reference value: 29.4 %); type: functional
# HCT-116 [18] = assay: Cell cycle arrest in human HCT116 cells assessed as accumulation of diploid cells at 0.23 uM (reference value: 2.5 %); type: functional
# HCT-116 [19] = assay: Cell cycle arrest in human HCT116 cells assessed as accumulation at G0/G1 phase at 10.96 uM (reference value: 0.28 %); type: functional
# HCT-116 [20] = assay: Cell cycle arrest in human HCT116 cells assessed as accumulation at G2/M phase at 0.28 uM (reference value: 29.4 %); type: functional
# HCT-116 [21] = assay: Cell cycle arrest in human HCT116 cells assessed as accumulation of diploid cells at 0.28 uM (reference value: 2.5 %); type: functional
# HCT-116 [22] = assay: Induction of apoptosis in human HCT116 cells assessed as apoptotic cells at 0.28 uM (reference value: 2.4 %); type: functional
# HCT-116 [23] = assay: Cell cycle arrest in human HCT116 cells assessed as accumulation at S phase at 0.28 uM (reference value: 18.4 %); type: functional
# HCT-116 [24] = assay: Cell cycle arrest in human HCT116 cells assessed as accumulation at S phase at 0.03 uM (reference value: 18.4 %); type: functional
# HCT-116 [25] = assay: Cell cycle arrest in human HCT116 cells assessed as accumulation of diploid cells at 0.03 uM (reference value: 2.5 %); type: functional
# HCT-116 [26] = assay: Cell cycle arrest in human HCT116 cells assessed as accumulation at G0/G1 phase at 0.03 uM (reference value: 46.8 %); type: functional
# HCT-116 [27] = assay: Induction of apoptosis in human HCT116 cells assessed as apoptotic cells at 0.03 uM (reference value: 2.4 %); type: functional
# HCT-116 [28] = assay: Cell cycle arrest in human HCT116 cells assessed as accumulation at G2/M phase at 0.03 uM (reference value: 29.4 %); type: functional
SMILES,selectivity ratio [6],IC50 (CCD-841CoN) [µM],IC50 (HCT-116 [8]) [µM],also measured
CN(C)c1ccc(/C=C2\CN(C(=O)C(Cl)Cl)C/C(=C\c3ccc(N(C)C)cc3)C2=O)cc1,0.69,9.12,13.3,Activity (HCT-116 [1]): Active; Activity (HCT-116 [2]): 20.8%; Activity (HCT-116 [3]): inactive; Activity (HCT-116 [4]): 42.9%; Activity (HCT-116 [5]): 1.4%; Activity (HCT-116 [7]): 4.6%; Activity (HCT-116 [9]): Active; Activity (HCT-116 [10]): 29.9%; Activity (HCT-116 [11]): inactive
CC(C)(C)C(=O)N1C/C(=C\c2ccc(OC(=O)C(Cl)Cl)cc2)C(=O)/C(=C/c2ccc(OC(=O)C(Cl)Cl)cc2)C1,71.3,16.4,0.23,
COc1ccc(/C=C2\CN(C(=O)C(Cl)Cl)C/C(=C\c3ccc(OC)cc3)C2=O)cc1,48.9,13.2,0.27,
O=C1/C(=C/c2ccc(F)cc2)CN(C(=O)C(Cl)Cl)C/C1=C\c1ccc(F)cc1,292,14.6,0.05,
O=C([O-])C(Cl)Cl.[Na+] [SODIUM DICHLOROACETATE],0.85,12.5,14.8,
O=C1/C(=C/c2ccccc2)CNC/C1=C\c1ccccc1,2.7,9.45,3.5,
COc1cc(/C=C2\CN(C(=O)C(Cl)Cl)C/C(=C\c3cc(OC)c(OC)c(OC)c3)C2=O)cc(OC)c1OC,378,15.1,0.04,Ratio IC50 (HCT-116 [12]): >100
O=C1/C(=C/c2ccc(O)cc2)CN(C(=O)C(Cl)Cl)C/C1=C\c1ccc(O)cc1,3.58,13.8,3.85,
Cc1ccc(/C=C2\CN(C(=O)C(Cl)Cl)C/C(=C\c3ccc(C)cc3)C2=O)cc1,540,16.2,0.03,Ratio IC50 (HCT-116 [12]): >100
O=C1/C(=C/c2ccccc2)CN(C(=O)C(Cl)Cl)C/C1=C\c1ccccc1,54.4,12.5,0.23,Activity (HCT-116 [13]): 19.9%; Activity (HCT-116 [1]): Active; Activity (HCT-116 [14]): 44.7%; Activity (HCT-116 [3]): Active; Activity (HCT-116 [15]): 3.6%; Stability [16]: Stable; Activity (HCT-116 [9]): Active; Activity (HCT-116 [17]): 29.6%; Activity (HCT-116 [18]): 1.8%; Activity (HCT-116 [11]): Active
CC(=O)N1C/C(=C\c2ccccc2)C(=O)/C(=C/c2ccccc2)C1,74.3,20.8,0.28,Activity (HCT-116 [1]): Active; Activity (HCT-116 [3]): Active; Activity (HCT-116 [19]): 45.5%; Activity (HCT-116 [20]): 30%; Activity (HCT-116 [21]): 2.4%; Activity (HCT-116 [22]): 3.5%; Activity (HCT-116 [23]): 18.3%; Activity (HCT-116 [9]): Active; Activity (HCT-116 [11]): Active
O=C1/C(=C/c2ccc(Cl)cc2)CN(C(=O)C(Cl)Cl)C/C1=C\c1ccc(Cl)cc1,115,14.9,0.13,
O=C1/C(=C/c2ccc([N+](=O)[O-])cc2)CN(C(=O)C(Cl)Cl)C/C1=C\c1ccc([N+](=O)[O-])cc1,370,11.1,0.03,Activity (HCT-116 [1]): Active; Activity (HCT-116 [3]): Active; Activity (HCT-116 [24]): 21.4%; Ratio IC50 (HCT-116 [12]): >100; Activity (HCT-116 [25]): 2.2%; Activity (HCT-116 [26]): 44.4%; Activity (HCT-116 [9]): Active; Activity (HCT-116 [27]): 3.6%; Activity (HCT-116 [28]): 27.8%; Activity (HCT-116 [11]): Active
COc1ccc(/C=C2\CN(C(=O)C(Cl)Cl)C/C(=C\c3ccc(OC)c(OC)c3)C2=O)cc1OC,96.4,10.6,0.11,
O=C1/C(=C/c2ccc(Cl)c(Cl)c2)CN(C(=O)C(Cl)Cl)C/C1=C\c1ccc(Cl)c(Cl)c1,305,12.2,0.04,Ratio IC50 (HCT-116 [12]): >100
O=c1[nH]cc(F)c(=O)[nH]1 [FLUOROURACIL],4.65,18.7,4.02,Activity (HCT-116 [1]): Active; Activity (HCT-116 [3]): Active; Activity (HCT-116 [9]): Active; Activity (HCT-116 [11]): Active
O=C1/C(=C/c2cccc(F)c2)CN(C(=O)C(Cl)Cl)C/C1=C\c1cccc(F)c1,135,14.8,0.11,
O=C1/C(=C/c2ccc(F)c(F)c2)CN(C(=O)C(Cl)Cl)C/C1=C\c1ccc(F)c(F)c1,185,11.1,0.06,
O=C1/C(=C/c2ccccc2F)CN(C(=O)C(Cl)Cl)C/C1=C\c1ccccc1F,52.4,11,0.21,
O=C1/C(=C/c2ccc3c(c2)OCO3)CN(C(=O)C(Cl)Cl)C/C1=C\c1ccc2c(c1)OCO2,65.9,21.1,0.32,
